Source: patent US8933070B2, “Methods of targeting PTEN mutant diseases and compositions therefor” (University Health Network, priority 2010, dated 2015)

What was measured:
PLK2 = biological target: T1, PLK2 (Homo sapiens, UniProt Q9NYY3); assay: PLK2 inhibition assay (Z-Lyte); assay type: biochemical; settings: dose of 10 μM; read-out: PLK2 relative inhibition percentage
T1 construct: purchased Invitrogen PV4204
Procedure: PLK2 inhibition was determined using the Z-Lyte assay kit from Invitrogen (cat# PV3802). The assay was performed using the recommended manufacturer's instructions with 60 μM ATP and 133 nM PLK2 (Invitrogen cat #PV4204). The % inhibition values were determined according to the manufacturer's directions and IC50 values were obtained using a non-linear 4 point logistic curve fit (XLfit4, IDBS)

[1] = tested on: HCT116 p53^+/+ colon cancer cell line; assay: Cell growth inhibition, SRB assay, extended panel; assay type: cell-based; settings: Homo sapiens, HCT-116, read-out: GI50 Range HCT116 p53^+/+
Procedure: (§1) Breast cancer cells (MCF-7, MDA-MB-468 and HCC1954), colon cancer cells (SW620) and lung cancer cells (A549), together with human mammary epithelial primary cells (HMEC) were seeded (1000 to 4000 per 80 μl per well depending on the cell growth rate) into 96-well plates 24 hours before compound overlay. Compounds were prepared as 10 mM stock solutions in 100% DMSO which were diluted with DMEM (Dulbecco's Modified Eagle's Medium) cell growth Medium (Invitrogen, Canada) containing 10% FBS (Fetal Bovine Serum) to concentrations ranging from 50 nM to 250 μM. Aliquots (20 μl) from each concentration were overlaid to 80 μl of the pre-seeded cells in the 96-plates to make final concentrations of 10 nM to 50 μM. The cells were cultured for 5 days before the Sulforhodamine B (SRB) assay was performed to determine the compound's cell growth inhibition activity.
(§2) Sulforhodamine B (Sigma, Canada) is a water-soluble dye that binds to the basic amino acids of cellular proteins. Thus, colorimetric measurement of the bound dye provides an estimate of the total protein mass that is related to the cell number. The cells are fixed in situ by gently aspirating off the culture media and adding 50 μl ice cold 10% Trichloroacetic Acid (TCA) per well and incubated at 4° C. for 30-60 min. The plates are washed with water five times and allowed to air dry for 5 min. Addition of 50 μl 0.4% (w/v) SRB solution in 1% (v/v) acetic acid to each well and incubatation for […] at RT completes the staining reaction. Following staining, plates are washed four times with 1% acetic acid to remove unbound dye and then allowed to air dry for 5 min. The stain is solubilized with 100 μl of 10 mM Tris pH 10.5 per well. Absorbance is read at 570 nm.
(§3) The percentage (%) of relative growth inhibition was calculated by comparing to DMSO-treated only cells (100%). GI50's were determined for compounds with cytotoxic activity. The GI50 was calculated using GraphPad PRISM software (GraphPad Software, Inc., USA).
(§4) In addition to the cell lines tested as described above, selected compounds have been assayed against an extended panel. These include: breast cancer cell lines (T-47D, MDA-MB-231, Hs578T, 8T-474, SKBr-3 and HCC1954), a lung cancer cell line (H358), brain cancer cell lines (A172, Hs683 and SK-N-SH), colon cancer cell lines (Colo 205, HCT-15, HCT116 p53^+/+ and HCT116 p53^−/−), ovarian cancer cell lines (OVCAR-3, SK-OV-3 and SW626), a melanoma cell line (518A2), a prostate cancer cell line (PC-3) and an immortalized breast cell line (184A1). The SRB assay described above was used to assay test compounds against the extended panel (Table 6).

[2] = tested on: HCT116 p53^−/− colon cancer cell line; assay: Cell growth inhibition, SRB assay, extended panel; assay type: cell-based; settings: Homo sapiens, HCT-116, read-out: GI50 Range HCT116 p53^−/−
Procedure: as §1, §2, §3, §4

PLK1 = biological target: T2, PLK1 (Homo sapiens, UniProt P53350); assay: PLK1 inhibition assay (Z-Lyte); assay type: biochemical; settings: dose of 10 μM; read-out: PLK1 relative inhibition percentage
T2 construct: purchased Invitrogen PV3501
T2 sequence (P53350 whole entry): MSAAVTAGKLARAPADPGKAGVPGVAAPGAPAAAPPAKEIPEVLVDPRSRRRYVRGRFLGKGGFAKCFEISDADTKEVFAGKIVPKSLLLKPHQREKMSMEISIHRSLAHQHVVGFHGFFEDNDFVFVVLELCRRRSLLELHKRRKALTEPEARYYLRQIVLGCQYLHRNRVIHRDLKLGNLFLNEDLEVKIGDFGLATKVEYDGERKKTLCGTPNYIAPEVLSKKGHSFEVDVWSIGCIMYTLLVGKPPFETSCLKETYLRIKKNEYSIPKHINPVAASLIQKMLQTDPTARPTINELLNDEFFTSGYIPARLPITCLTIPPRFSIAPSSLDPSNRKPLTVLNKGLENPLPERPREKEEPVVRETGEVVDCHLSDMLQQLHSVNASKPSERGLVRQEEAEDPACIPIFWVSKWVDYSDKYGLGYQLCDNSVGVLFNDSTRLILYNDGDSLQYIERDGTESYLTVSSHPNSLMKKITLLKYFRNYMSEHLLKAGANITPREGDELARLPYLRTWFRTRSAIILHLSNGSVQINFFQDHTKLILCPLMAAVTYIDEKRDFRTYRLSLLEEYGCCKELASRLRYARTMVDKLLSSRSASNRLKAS

T1 sequence (Q9NYY3 whole entry): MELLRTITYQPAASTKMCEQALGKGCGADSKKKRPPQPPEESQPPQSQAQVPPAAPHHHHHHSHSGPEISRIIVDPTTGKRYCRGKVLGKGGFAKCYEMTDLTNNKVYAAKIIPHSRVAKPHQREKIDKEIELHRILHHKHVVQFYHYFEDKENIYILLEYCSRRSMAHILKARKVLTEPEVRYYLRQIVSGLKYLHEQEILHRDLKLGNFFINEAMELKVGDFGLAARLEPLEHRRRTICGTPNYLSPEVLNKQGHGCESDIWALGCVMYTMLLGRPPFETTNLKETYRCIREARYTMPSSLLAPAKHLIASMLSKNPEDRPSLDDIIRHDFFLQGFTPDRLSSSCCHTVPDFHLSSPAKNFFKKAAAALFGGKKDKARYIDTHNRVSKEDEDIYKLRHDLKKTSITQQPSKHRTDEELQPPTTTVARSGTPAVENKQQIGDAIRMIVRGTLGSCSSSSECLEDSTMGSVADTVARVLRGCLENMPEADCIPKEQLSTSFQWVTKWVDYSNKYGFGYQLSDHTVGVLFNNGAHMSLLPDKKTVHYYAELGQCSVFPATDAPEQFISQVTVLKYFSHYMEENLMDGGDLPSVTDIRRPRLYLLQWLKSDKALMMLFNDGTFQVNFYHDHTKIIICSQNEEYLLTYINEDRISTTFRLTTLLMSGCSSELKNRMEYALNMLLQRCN

- inhibition at 10 µM (PLK2): < 50%
- GI50 [1]: < 5 µM
- GI50 [2]: < 5 µM
- inhibition at 10 µM (PLK1): < 50%
SMILES: CN1CCN(c2ccc(/C=C/c3n[nH]c4cc(C=C5C(=O)Nc6ccccc65)ccc34)cn2)CC1 [Compound 32]
